Results reported in patent US5846755A (priority 1995, dated 1998).

Legend:
[1] = tested on: hemorrhages and lethal results induced by snake venom; test: Inhibition of hemorrhages and lethality induced by snake venom in mice; format: in vivo
[2] = molecular target: neutrophil collagenase (recombinant human) (Homo sapiens, UniProt P22894); test: In vitro assays on recombinant human collagenase; format: biochemical
Procedure: Using the same enzymatic determination already described (fluorimetric detection of cleavage of a substrate peptide containing a fluorescent moiety), some of the compounds were tested on neutrophil collagenase, an enzyme described as participating in any kind of inflammatory reaction in mammalian bodies. In this case, the purified enxzyme was also obtained by recombinant means.

[3] = molecular target: T1, recombinant human gelatinase A (Homo sapiens, UniProt P08253); test: In vitro effects on recombinant human gelatinase A; format: biochemical
T1 construct: purchased Strangeways Laboratories, Cambridge, UK
T1 sequence (P08253 110-660): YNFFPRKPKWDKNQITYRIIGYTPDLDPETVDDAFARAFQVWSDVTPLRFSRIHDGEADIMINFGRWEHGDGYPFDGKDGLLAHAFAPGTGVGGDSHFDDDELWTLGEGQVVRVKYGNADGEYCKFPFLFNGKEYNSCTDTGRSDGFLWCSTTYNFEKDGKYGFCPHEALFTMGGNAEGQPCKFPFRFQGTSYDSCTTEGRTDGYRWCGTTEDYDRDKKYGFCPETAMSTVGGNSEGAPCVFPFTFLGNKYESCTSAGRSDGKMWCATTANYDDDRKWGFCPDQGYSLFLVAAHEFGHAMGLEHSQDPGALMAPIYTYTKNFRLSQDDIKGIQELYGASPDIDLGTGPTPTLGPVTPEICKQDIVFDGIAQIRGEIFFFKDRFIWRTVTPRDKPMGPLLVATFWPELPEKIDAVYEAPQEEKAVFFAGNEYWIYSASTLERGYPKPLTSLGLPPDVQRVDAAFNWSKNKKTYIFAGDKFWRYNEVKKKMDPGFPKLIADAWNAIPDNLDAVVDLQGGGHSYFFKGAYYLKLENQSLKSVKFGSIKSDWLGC
Excerpt: Assays on human gelatinase A, an enzyme released in high concentration by any kind of tumor cells during the process of metastatization, and recognized also as a product of stimulated cells in many pathological processes, have been performed using the protein obtained by recombinant biotechnology (Strangeways Laboratories, Cambridge, UK). The enzymatic activity has been followed over time, measuring the amount of fluorescent substrate cleaved by the enzyme, in the presence or absence of synthetic compounds (Perkin Elmer L50 B fluorimeter).

[4] = molecular target: T2, recombinant human gelatinase B (Homo sapiens, UniProt P14780); test: In vitro effects on recombinant human gelatinase B; format: biochemical
T2 construct: purchased Stangeways Laboratories, Cambridge, UK (so in the source)
Procedure: Assays on human gelatinase B, another enzyme released by tumor cells, were performed using also, in this case, the protein obtained by recombinant biotechnology Stangeways Laboratories, Cambridge, UK). As usual, the enzymatic activity was followed over time, measuring the amount of fluorescent substrate cleaved by the enzyme, in the presence or absence of synthetic compounds (Perkin Elmer L50 B fluorimeter).

[5] = molecular target: enzyme purified from the venom of Crotalus Adamanteus (hemorrhagin) (Crotalus adamanteus, UniProt P34179); format: biochemical; details: for IC50: read-out: IC50
[6] = tested on: blood cells that migrate to the inflamed site (lymphocytes, neutrophils, eosinophils, macrophages); test: Hypereosinophilia induced in rats by Sephadex G-200 resin; format: in vivo; details: hypereosinophilia induced by Sephadex G-200 resin, result in words
Procedure: As the metalloproteinases produced by the cells of mammals are of fundamental importance to allow the cells to migrate from one tissue to another within the organism, Compounds 9, 18, 25 and 31 of the present invention, together with the compounds Z--Pro--Leu--Cyt and FUR--Leu--Cyt (Examples 1 and 8, respectively, of WO 92/06018) were tested on hypereosinophilia induced in rats by Sephadex G-200 resin.

[7] = molecular target: metalloproteinase purified from snake venom, Echis Carinatus; test: Inhibition of metalloproteinase purified from Echis Carinatus venom; format: biochemical; details: Table 5; unit M
[8] = molecular target: metalloproteinase purified from snake venom, Bothrops Atrox; test: Inhibition of metalloproteinase purified from Bothrops Atrox venom; format: biochemical; details: Table 5; unit M
[9] = molecular target: metalloproteinase purified from snake venom, Bothrops Jararaca; test: Inhibition of metalloproteinase purified from Bothrops Jararaca venom; format: biochemical; details: Table 5; unit M
[10] = tested on: release of active TNF in human cell culture medium (Jurkat); test: Release of active TNF from Jurkat cells (ELISA); format: cell-based; details: 72 hours incubation, stimulated with PMA and ionophore calcium
Procedure: It is well known that TNF plays a fundamental role in certain physiological defense responses but, on the other hand, causes severe damage when it is released into circulation in excessive amounts or for prolonged periods. […] An attempt was, therefore, made to see whether certain compounds selected from among those of the present application and of WO 92/06108 were capable of blocking the release of active TNF in human cell culture medium (Jurkat). The cells were incubated in the presence or in the absence of metalloproteinase inhibitor for 72 hours; the release of TNF was then stimulated using activators (PMA and ionophore calcium), and the Factor was dosed into the culture medium using the ELISA test (Genzyme).

[11] = tested on: microhemorrhages induced by histamine; test: Histamine-induced microhemorrhages (capillary permeability) in hamsters; format: in vivo
[12] = tested on: human melanoma cell line VMM-5; test: Matrigel-based invasion assay with human melanoma cells; format: cell-based; details: Concentration 500 micro M, VMM-5 cells, 20 hours
Excerpt: In order to obtain information about the possible interference of the synthesized compounds on the ability of tumor cells to migrate through the body (metastatization), the human melanoma cell line VMM-5 was used in the matrigel-based invasion assay, in which basal membrane matrigel (Becton Dickinson) and tissue culture inserts with 8 microns pore size in 24 well tissue culture plates were used as Boyden chambers. The chambers were coated with diluted matrigel and allowed to dry overnight; they were then reconstituted with serum free medium, and melanoma cells (4,000,000/ml) were dispensed in each insert. In the lower chambers, a chemoattractant was included. The chambers were finally placed in a humidified CO2 incubator at 37° C., and incubated for 20 hours. The inserts were dried and the cells on the upper surface removed. The polycarbonate filters were fixed with methanol, stained with hematoxylin and eosin, and counted with a microscope. Inhibition of migration due to compounds has been expressed as a percentage of the total number of migrated cells in the control chambers containing only the buffer in which the compounds were dissolved.

[13] = tested on: TNF release from another strain of human cells in culture (clone T); test: TNF release from human cells in culture (clone T); format: cell-based

enzyme purified from the venom of Crotalus Adamanteus (hemorrhagin), sequence (P34179 whole entry, looked up): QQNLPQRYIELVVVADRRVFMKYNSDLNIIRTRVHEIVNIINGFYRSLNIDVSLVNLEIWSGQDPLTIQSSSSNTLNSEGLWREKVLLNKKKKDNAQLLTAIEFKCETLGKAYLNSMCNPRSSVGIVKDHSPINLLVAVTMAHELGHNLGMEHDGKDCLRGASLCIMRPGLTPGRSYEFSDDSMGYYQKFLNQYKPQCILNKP
neutrophil collagenase (recombinant human), sequence (P22894 101-467): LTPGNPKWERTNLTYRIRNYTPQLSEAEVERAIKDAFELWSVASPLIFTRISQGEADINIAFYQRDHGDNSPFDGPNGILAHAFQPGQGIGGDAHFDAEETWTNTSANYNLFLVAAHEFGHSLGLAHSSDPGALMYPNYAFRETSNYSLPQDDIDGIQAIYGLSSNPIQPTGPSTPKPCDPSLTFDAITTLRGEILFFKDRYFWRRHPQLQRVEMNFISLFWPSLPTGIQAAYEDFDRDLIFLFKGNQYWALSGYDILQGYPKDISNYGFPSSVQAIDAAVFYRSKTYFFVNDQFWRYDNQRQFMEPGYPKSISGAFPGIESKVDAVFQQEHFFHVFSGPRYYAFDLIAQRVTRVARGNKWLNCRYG
T2 sequence (P14780 94-707): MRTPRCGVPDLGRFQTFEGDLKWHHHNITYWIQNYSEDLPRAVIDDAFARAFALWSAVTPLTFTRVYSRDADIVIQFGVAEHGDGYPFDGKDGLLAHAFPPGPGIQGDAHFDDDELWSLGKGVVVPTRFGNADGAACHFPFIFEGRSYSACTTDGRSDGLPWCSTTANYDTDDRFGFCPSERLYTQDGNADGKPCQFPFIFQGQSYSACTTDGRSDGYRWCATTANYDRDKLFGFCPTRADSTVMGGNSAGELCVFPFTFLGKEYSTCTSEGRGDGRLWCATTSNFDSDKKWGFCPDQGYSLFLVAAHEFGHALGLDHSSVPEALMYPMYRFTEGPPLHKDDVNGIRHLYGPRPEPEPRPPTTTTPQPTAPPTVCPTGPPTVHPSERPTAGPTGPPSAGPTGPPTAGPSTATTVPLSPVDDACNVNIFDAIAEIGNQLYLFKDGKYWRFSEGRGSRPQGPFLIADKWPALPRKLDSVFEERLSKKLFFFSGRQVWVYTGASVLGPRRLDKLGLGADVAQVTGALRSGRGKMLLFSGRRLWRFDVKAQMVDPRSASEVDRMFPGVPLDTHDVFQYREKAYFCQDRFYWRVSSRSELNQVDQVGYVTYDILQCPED

With `CC(C)C[C@H](NC(=O)c1ccco1)C(=O)N[C@@H](Cc1c[nH]c2ccccc12)C(=O)O` [2-FUR--Leu--Trp] the “Protection of mice from death by injection of the venom” value ([1]; dose of 33 mcg/mouse, even when administered after the venom (up to 30 minutes)) was “capable of protecting the mice from death”, the “Neutralizing the toxic effects of hemorrhagic factors of various snake venom” value ([1]; mice, compound incubated with the hemorrhagic factors) was “capable of neutralizing the toxic effects thereof” and the “% Inhibition” value ([2]; Concentration 2.4 × 10^-5 M) was 12%. The “% Inhibition” value ([3]; Concentration 1.0 × 10^-7 M) was 41%, the “% Inhibition” value ([4]; Concentration 1.0 × 10^-5 M) was 22% and the “In vitro inhibition of the metalloproteinase purified from the venom of Crotalus Adamanteus” value [5] was “excellent in vitro inhibitor”.

With `CC(C)C[C@H](NC(=O)c1cnccn1)C(=O)N1Cc2[nH]c3ccccc3c2C[C@H]1C(=O)O` [Compound 18, 2-PZC--(L)--Leu--(S)--Cyt--OH] the “Effect on number of blood cells that migrate to the inflamed site” value [6] was “interfered with the number of blood cells that migrate to the inflamed site”, the IC50 [7] was 7 µM and the IC50 [8] was 5.2 µM. For the same compound, the IC50 [5] was 0.21 µM and the IC50 [9] was 8.4 µM.

`Cc1ccc(C(=O)N[C@@H](CC(C)C)C(=O)N2Cc3[nH]c4ccccc4c3C[C@H]2C(=O)O)cn1` [Compound 22, 6-MNC--(L)--Leu--(S)--Cyt--OH] was tested, and the IC50 [7] was 14 µM, the IC50 [8] was 3.2 µM and the “% Inhibition” value ([3]; Concentration 8.0 × 10^-7 M) was 47%. It also gave an IC50 [5] of 0.11 µM and an IC50 [9] of 21 µM.

In the case of Z--Pro--Leu--Cyt, the “IC50 of inhibition of TNF release by cells” value [10] is reported as “around 5 mcg/ml”, the “Effect on number of blood cells that migrate to the inflamed site” value [6] is reported as “interfered with the number of blood cells that migrate to the inflamed site” and the “% Inhibition” value ([2]; Concentration 1.8 × 10^-5 M) is reported as 23%. For the same compound, the “% Inhibition” value ([3]; Concentration 1.8 × 10^-7 M) was 64%, the “% Inhibition” value ([4]; Concentration 9.0 × 10^-6 M) was 32% and the “Dose capable of blocking 50% of effects” value ([11]; administered orally) was “around 50 mcg/Kg”. The “Dose capable of blocking 50% of effects” value ([11]; injected intravenously) was “around 50 mcg/Kg”, the “Blocking microhemorrhages induced by histamine” value ([11]; result in words) was “extremely powerful in blocking microhemorrhages induced by histamine” and the “% Inhibition of Invasion” value [12] was 70%. For the same compound, the “IC50 of inhibition of TNF release” value [13] was “lower than 1 mcg/ml”.
